Tests used:
[1] = Photostability assay (absorbance decay under white light); type: physicochemical; conditions: 10 µM in PBS, after 30 min white light irradiation; 436 nm for 5, 439 nm for 10
Protocol: To further explore this, the photostability of these dyes was tested. […] A gradual linear degradation continued for at least 120 min. This degradation likely explains the decreased cytotoxicity observed in the photocytotoxicity assay.
In a 96-well plate, 100 µL of dyes 5 and 10 at a concentration of 10 µM, prepared from 10 mM DMSO stock solution diluted in PBS, was added at each well. The photostability assay was performed by irradiating the as previously described for photocytotoxicity evaluation, repeated several times up to 120 min. Spectrophotometric readings were taken over the maximum absorption wavelength of each dye (436 nm for 5 and 439 nm for 10). Two independent experiments were performed in quadruplicate, and the obtained absorbance values were normalized.

Caco-2 cells = assay: Fluorescence microscopy (cell penetration, intracellular localization); type: cell-based, human; conditions: Caco-2, 1 µM, 20 h, Hoescht 33342 counterstain
Protocol: The cells were incubated with the dyes for 20 h, followed by fixation and staining with Hoescht 33342, a commonly used cell-permeant nucleic acid stain.
Fluorescence microscopy was used to confirm whether the compounds under study cross the cell membrane, and to understand where they are located within the cell (nucleus and/or cytoplasm). To this end, the procedure previously described in Lima et al. was followed. Hoescht 33342 was used as a specific marker. Cells were seeded in 24-well culture plates containing sterile circular coverslips of 15 mm diameter. After 48 h for cell adhesion, they were incubated with the compounds for 20 h. After this incubation period, the cells were washed three times with PBS and the fixation process was carried out. To do this, the contents of the wells were removed, and a 4% formalin solution was added until the wells were covered, followed by an incubation at room temperature for 15 min. Then, the washing process was repeated three times with PBS, and the cells were then incubated with a solution of Hoescht 33342 (1:500) for 10 min, in the dark and at room temperature. Subsequently, the wells were washed again with PBS and the slides were mounted with permanent mounting medium (Dako) and left to dry in a cool and dry place for 24 h. […]

NHDF cell line = assay: Phototoxicity assay (MTT after white light irradiation); type: cell-based; conditions: Homo sapiens, light or radiation study, 30 min white light irradiation (30 W RGB LED) after 48 h, 72 h in total
Protocol: While this work focused on monomethine cyanine dyes designed to be used at the outer edge of the “phototherapeutic window” (650–850 nm), photocytotoxicity and photostability studies were carried out for cyanines 5 and 10, as part of an effort to determine whether there would be synergistic action from light exposure on their cytotoxicity. A 30 W RGB LED light source, previously validated by our research group, was applied to the NHDF cell line using the MTT assay. […] These reductions in cytotoxicity align with previous studies on similar compounds and are likely due to some level of photodegradation.
A phototoxicity evaluation was performed on the NHDF cell line with a similar methodology to the MTT assay and following previously validated methods. After 48 h of incubation with increasing concentrations ranging from 0.001 to 100 μM, cells were subjected to 30 min of constant irradiation with the white light of a Luxtar (Yancheng, Jiangsu, China) RGBW LED projector (220–240 V and 30 W). After this irradiation, the cells were incubated at 37 °C for an additional 24 h (72 h in total). This assay was performed in quadruplicate, and two independent assays were realized.

SMILES: CCN1C(=Cc2sc3cc([N+](=O)[O-])ccc3[n+]2CC)Sc2ccccc21.Cc1ccc(S(=O)(=O)[O-])cc1 [Dye 10, 3-Ethyl-2-((3-ethylbenzo[d]thiazol-2(3H)-ylidene)methyl)-6-nitrobenzo[d]thiazol-3-ium 4-methylbenzenesulfonate]
- reduction in absorbance at maximum wavelength [1]: 2.5%
- cell membrane crossing, intracellular localization and fluorescence (Caco-2 cells): significantly lower fluorescence intensity compared to dye 5
- IC50 (NHDF cell line): 34.1 µM

SMILES: CN1C(=Cc2oc3ccccc3[n+]2C)C=Cc2ccccc21.Cc1ccc(S(=O)(=O)[O-])cc1 [Dye 5, 3-Methyl-2-((1-methylquinolin-2(1H)-ylidene)methyl)benzo[d]oxazol-3-ium 4-methylbenzenesulfonate]
- reduction in absorbance at maximum wavelength [1]: 3.7%
- cell membrane crossing, intracellular localization and fluorescence (Caco-2 cells): stain a specific organelle within the nucleoplasm but does not localize in the DNA
- IC50 (NHDF cell line): 4.07 µM
